For one series, the system named is Chikungunya virus. Description: Evaluation of antiviral activity against Chikungunya virus (EC90). The class given is cell-based. An excerpt:
EC90 refers to the concentration of the compound that is required for 90% antagonism or inhibition of CHIKV. EC90 also refers to the concentration of a substance that is required for 90% antagonism or inhibition of CHIKV in vivo.
(§1) The compounds below in Table 1 were synthesized with methods identical or analogous to those described herein. The requisite starting materials were commercially available, described in the literature, or readily synthesized by one skilled in the art of organic synthesis.

The nature of series [1]: CC50 reported alongside the CHIKV antiviral assay (cytotoxicity). It is filed as cell-based. The following applies: cell line not given.
Source text: as §1

The mark [2] stands for this setting: Chikungunya virus, read-out: EC90 (μM) CHIKV, concentration required for 90% inhibition of CHIKV.
Where [3] appears, read: read-out: EC90 (μM) CHIKV, concentration required for 90% inhibition of CHIKV.

Where two headings read alike, the source gives them in different places. A value given as a limit tells only on which side of the number the result lay.

As to `COc1cc2c(cc1NC(=O)c1ccc(C(C)(C)C#N)cc1)CCCCC2` [Compound 50, 4-(2-Cyanopropan-2-yl)-N-(3-methoxy-6,7,8,9-tetrahydro-5H-benzo[7]annulen-2-yl)benzamide], in the series with Chikungunya virus (setting [2]), the EC90 amounted to 1.16 µM. Further, in series [1], the CC50 (usually the concentration giving 50% cytotoxicity) was determined as 3.57 µM.
The like results for `COc1cc2c(cc1NC(=O)c1cnc(C(C)(C)C)s1)CCCCC2` [Compound 44, 2-(tert-Butyl)-N-(3-methoxy-6,7,8,9-tetrahydro-5H-benzo[7]annulen-2-yl)thiazole-5-carboxamide] were, in that order, 1.2 µM and greater than 30 µM.
On to `CC(C)(C)c1ccc(C(=O)Nc2cc3c(cc2O)CCCCC3)cc1` [Compound 15, 4-(tert-butyl)-N-(3-hydroxy-6,7,8,9-tetrahydro-5H-benzo[7]annulen-2-yl)benzamide], for which, in the series with Chikungunya virus (setting [2]), the EC90 was 0.4 µM. In series [1], the CC50 was greater than 30 µM.
The like results for `COc1cc2c(cc1NC(=O)c1cc(C)n(C(C)(C)C)n1)CCCCC2` [Compound 61] were, in that order, 5.64 µM and greater than 30 µM.
Consider `COc1cc2c(cc1NC(=O)c1cnc(C)cn1)CCCCC2` [Compound 39, N-(3-Methoxy-6,7,8,9-tetrahydro-5H-benzo[7]annulen-2-yl)-5-methylpyrazine-2-carboxamide], for which, in the series with Chikungunya virus (setting [3]), the EC90 was greater than 30 µM. In addition, in series [1], the CC50 was greater than 30 µM.
Consider `COc1cc2c(cc1NC(=O)c1ccc3nonc3c1)CCCCC2` [Compound 40, N-(3-Methoxy-6,7,8,9-tetrahydro-5H-benzo[7]annulen-2-yl)benzo[c][1,2,5]oxadiazole-5-carboxamide], for which the EC90 in the series with Chikungunya virus (setting [2]) is greater than 30 µM. This compound also came in with a CC50 in series [1] greater than 30 µM.
Consider `CCn1nc(C(=O)Nc2cc3c(cc2OC)CCCCC3)cc1C` [Compound 31, 1-Ethyl-N-(3-methoxy-6,7,8,9-tetrahydro-5H-benzo[7]annulen-2-yl)-5-methyl-1H-pyrazole-3-carboxamide], for which, in the series on Chikungunya virus (setting [2]), the EC90 was 0.79 µM. Besides, in series [1], the CC50 was greater than 30 µM.
In the same order, the values of `COc1c(NC(=O)c2cnc(C(C)(C)C)s2)cc2c(c1F)CCCCC2` [Compound 24, 2-(tert-Butyl)-N-(4-fluoro-3-methoxy-6,7,8,9-tetrahydro-5H-benzo[7]annulen-2-yl)thiazole-5-carboxamide] are greater than 10 µM and greater than 30 µM.
The like results for `COc1cc2c(cc1NC(=O)c1ccc(C(C)(C)C)c(F)c1)CCCCC2` [Compound 53, 4-(tert-Butyl)-3-fluoro-N-(3-methoxy-6,7,8,9-tetrahydro-5H-benzo[7]annulen-2-yl)benzamide] were, in that order, 2.24 µM and greater than 30 µM.
The like results for `COc1cc2c(cc1NC(=O)c1ccc(C(C)(C)C)s1)CCCCC2` [Compound 38, 5-(tert-Butyl)-N-(3-methoxy-6,7,8,9-tetrahydro-5H-benzo[7]annulen-2-yl)thiophene-2-carboxamide] were, in that order, 3.1 µM and 32 µM.
As for `COc1cc2c(cc1NC(=O)c1ccc(C(C)(C)C)cc1)CCCC(=O)N2C(C)C` [Compound 63, 4-(tert-butyl)-N-(1-isopropyl-8-methoxy-2-oxo-2,3,4,5-tetrahydro-1H-benzo[b]azepin-7-yl)benzamide], the EC90 in the series with Chikungunya virus (setting [2]) is greater than 30 µM. Besides, in series [1], the CC50 was greater than 30 µM.
On to `COc1cc2c(cc1NC(=O)c1cnc(C)cn1)CCCCC2` [Compound 81, N-(3-methoxy-6,7,8,9-tetrahydro-5H-benzo[7]annulen-2-yl)-5-methylpyrazine-2-carboxamide], for which the EC90 in the series with Chikungunya virus (setting [3]) is greater than 10 µM. Also, the cytotoxic concentration (CC50) in series [1] is greater than 30 µM.
For the compound `COc1cc2c(cc1NC(=O)Cc1ccc(C(C)(C)C)cc1)CCCCC2` [Compound 54], in the series with Chikungunya virus (setting [2]), the EC90 is 42.9 µM. In addition, the CC50 in series [1] is greater than 30 µM.
The like results for `COc1cc2c(cc1N1Cc3cc(C(C)(C)C)ccc3C1=O)CCCCC2` [Compound 60, 5-(tert-Butyl)-2-(3-methoxy-6,7,8,9-tetrahydro-5H-benzo[7]annulen-2-yl)isoindolin-1-one] were, in that order, greater than 10 µM and greater than 30 µM.
The like results for `COc1cc2c(cc1NC(=O)c1cc(C(C)(C)C)c(O)c(C(C)(C)C)c1)CCCCC2` [Compound 70, 3,5-Di-tert-butyl-4-hydroxy-N-(3-methoxy-6,7,8,9-tetrahydro-5H-benzo[7]annulen-2-yl)benzamide] were, in that order, 44.8 µM and greater than 30 µM.
In the same order, the values of `COc1cc2c(cc1NC(=O)c1ccccc1C(C)(C)C)CCCCC2` [Compound 43, 2-(tert-Butyl)-N-(3-methoxy-6,7,8,9-tetrahydro-5H-benzo[7]annulen-2-yl)benzamide] are 3.2 µM and greater than 30 µM.
For “3,5-Difluoro-N-(3-methoxy-6,7,8,9-tetrahydro-5H-benzo[7]annulen-2-yl)picolinamide [Compound 77]”, in the series on Chikungunya virus (concentration required for 90% inhibition of CHIKV, read-out: EC90 (μM) CHIKV), the EC90 is 2.9 µM. This compound registered a CC50 in series [1] greater than 30 µM.
As for `COc1cc2c(cc1N1Cc3ccc(C(C)(C)C)cc3C1=O)CCCCC2` [Compound 59, 6-(tert-Butyl)-2-(3-methoxy-6,7,8,9-tetrahydro-5H-benzo[7]annulen-2-yl)isoindolin-1-ONE], the EC90 with Chikungunya virus (setting [2]) was greater than 10 µM. In series [1], this compound came in with a CC50 greater than 30 µM.
For `CCn1cc(C(=O)Nc2cc3c(cc2OC)CCCCC3)c(C(F)(F)F)n1` [Compound 45, 1-Ethyl-N-(3-methoxy-6,7,8,9-tetrahydro-5H-benzo[7]annulen-2-yl)-3-(trifluoromethyl)-1H-pyrazole-4-carboxamide], the EC90 with Chikungunya virus (setting [2]) came to 2.95 µM. For the same compound, in series [1], the CC50 stood at 34.5 µM.
The like results for `CC(=O)Oc1cc2c(cc1NC(=O)c1ccc(C(C)(C)C)cc1)CCCCC2` [Compound 16, 3-(4-(tert-Butyl)benzamido)-6,7,8,9-tetrahydro-5H-benzo[7]annulen-2-yl acetate] were, in that order, 2.8 µM and greater than 30 µM.
Turning to `COc1cc2c(cc1NC(=O)c1ccc(C(C)(C)C(F)(F)F)cc1)CCCCC2` [Compound 52, N-(3-methoxy-6,7,8,9-tetrahydro-5H-benzo[7]annulen-2-yl)-4-(1,1,1-trifluoro-2-methylpropan-2-yl)benzamide], the EC90 with Chikungunya virus (setting [2]) was found to be 3.47 µM. In series [1], this compound displayed a CC50 of 19.1 µM.
In the same order, the values of `CC(C)(C)c1ncc(C(=O)Nc2ccc3c(c2)CCCCC3)s1` [Compound 25, 2-(tert-butyl)-N-(6,7,8,9-tetrahydro-5H-benzo[7]annulen-2-yl)thiazole-5-carboxamide] are 22.6 µM and 15.7 µM.
On to `COc1cc2c(cc1NC(=O)c1cc(-c3ccccc3)on1)CCCCC2` [Compound 36, N-(3-methoxy-6,7,8,9-tetrahydro-5H-benzo[7]annulen-2-yl)-5-phenylisoxazole-3-carboxamide], for which the EC90 in the series with Chikungunya virus (setting [2]) stood at 9 µM. Moreover, the CC50 in series [1] is greater than 30 µM.
The like results for `CC(C)(C)c1ccc(C(=O)Nc2ccc3c(c2)CCCCC3)cc1` [Compound 19, 4-(tert-Butyl)-N-(6,7,8,9-tetrahydro-5H-benzo[7]annulen-2-yl)benzamide] were, in that order, 0.7 µM and 79.1 µM.
The like results for `COc1cc2c(cc1NC(=O)c1ccc(C(C)(C)C)o1)CCCCC2` [Compound 37, 5-(tert-Butyl)-N-(3-methoxy-6,7,8,9-tetrahydro-5H-benzo[7]annulen-2-yl)furan-2-carboxamide] were, in that order, 23.2 µM and greater than 30 µM.
In the same order, the values of `CCOc1cc2c(cc1NC(=O)c1ccc(C(C)(C)C)cc1)CCCCC2` [Compound 84, 4-(tert-Butyl)-N-(3-ethoxy-6,7,8,9-tetrahydro-5H-benzo[7]annulen-2-yl)benzamide] are 5.19 µM and 10 µM.
For the compound `COc1cc2c(cc1NC(=O)c1cc(F)c(C(C)(C)C)c(F)c1)CCCCC2` [Compound 90, 4-(tert-butyl)-3,5-difluoro-N-(3-methoxy-6,7,8,9-tetrahydro-5H-benzo[7]annulen-2-yl)benzamide], the EC90 in the series with Chikungunya virus (setting [2]) was 3.3 µM. Besides, the half-maximal cytotoxic concentration (CC50) in series [1] is greater than 30 µM.
In the same order, the values of `COc1cc2c(cc1NC(=O)c1c[nH]nc1C)CCCCC2` [Compound 69, N-(3-methoxy-6,7,8,9-tetrahydro-5H-benzo[7]annulen-2-yl)-3-methyl-1H-pyrazole-4-carboxamide] are 3.1 µM and greater than 30 µM.
The like results for `COc1cc2c(cc1NC(=O)c1cccc(C(C)(C)C)c1)CCCCC2` [Compound 41, 3-(tert-Butyl)-N-(3-methoxy-6,7,8,9-tetrahydro-5H-benzo[7]annulen-2-yl)benzamide] were, in that order, 34.1 µM and greater than 30 µM.
In the same order, the values of `COCCOc1cc2c(cc1NC(=O)c1ccc(C(C)(C)C)cc1)CCCCC2` [Compound 21, 4-(tert-Butyl)-N-(3-(2-methoxyethoxy)-6,7,8,9-tetrahydro-5H-benzo[7]annulen-2-yl)benzamide] are greater than 30 µM and greater than 30 µM.
Turning to `COc1cc2c(cc1NC(=O)c1ccc(C3(O)CCC3)cc1)CCCCC2` [Compound 66, 4-(1-Hydroxycyclobutyl)-N-(3-methoxy-6,7,8,9-tetrahydro-5H-benzo[7]annulen-2-yl)benzamide], the EC90 with Chikungunya virus (setting [2]) was greater than 10 µM. The compound further had a CC50 in series [1] greater than 30 µM.
Take `COc1cc2c(cc1NC(=O)c1ccc(OC(F)(F)F)cc1)CCCCC2` [Compound 72, N-(3-Methoxy-6,7,8,9-tetrahydro-5H-benzo[7]annulen-2-yl)-4-(trifluoromethoxy)benzamide]: the EC90 in the series on Chikungunya virus (setting [2]) turned out to be 3.3 µM. Besides, the CC50 in series [1] was greater than 30 µM.
The like results for `COc1cc2c(cc1NC(=O)c1ccc(-c3ccccn3)cc1)CCCCC2` [Compound 67, N-(3-Methoxy-6,7,8,9-tetrahydro-5H-benzo[7]annulen-2-yl)-4-(pyridin-2-yl)benzamide] were, in that order, greater than 10 µM and greater than 30 µM.

Source of the values: patent US10450263B2, “Benzo annulenes as antiviral agents” (Southern Research Institute, priority 2017, dated 2019).
